The values that follow come from patent US9944646B2, “Bicyclic azaheterocyclobenzylamines as PI3K inhibitors” (Incyte Corporation, priority 2012, dated 2018).

Counter-ions that a name gives are not always drawn.

One assay deals with PI3Kδ (Homo sapiens (Human), UniProt O00329). In words: PI3K Enzyme Assay (Example A2), [γ-33P]ATP filter plate. The assay is classed as biochemical. The method, boiled down:
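Recombinant PI3Kδ at 2.9 nM with 50 µM PIP2 in MOPS pH 6.7, MgCl2, DTT, CHAPS, 0.5% DMSO; started with 1000 μM ATP including [γ-33P]ATP, 180 min at room temperature. Phosphorylated product captured on PVDF filter plates and scintillation-counted; IC50 from percent-control activity vs log concentration.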

A further assay deals with SUDHL-6 cells. In words: SUDHL-6 Cell Proliferation Assay (Example B3). Particulars: 3 days, Cell Titer-GLO. The assay is classed as cell-based. As to the method:
Example B3: SUDHL-6 Cell Proliferation Assay
SUDHL-6 cell line (diffuse large B cell lymphoma) was purchased from ATCC (Manassas, Va.) and maintained in the culture medium recommended (RPMI and 10% FBS). To measure the anti-proliferation activity of the compounds through ATP quantitation, the SUDHL-6 cells was plated with the culture medium (5000 cells/well/per 200 μl) into 96-well polystyrene clear black tissue culture plate (Greiner-bio-one through VWR, NJ) in the presence or absence of a concentration range of test compounds. After 3 days, Cell Titer-GLO Luminescent (Promega, Madison, Wis.) cell culture agent was added to each well for 10 minutes at room temperature to stabilize the luminescent signal. This determines the number of viable cells in culture based on quantitation of the ATP present, which signals the presence of metabolically active cells. Luminescence was measured with the TopCount 384 (Packard Bioscience through Perkin Elmer, Boston, Mass.). […] IC50 data for the Examples is presented in Table 4 determined by the assay of Example B3.
A general note: ATP-based viability assays read luminescence as a measure of living cells.

For a further assay, the target named is PI3Kδ (p110δ/p85α) (Homo sapiens (Human), UniProt O00329). Description: PI3Kδ Scintillation Proximity Assay (Example A3). The assay is classed as biochemical. The text has this: Example A3: PI3Kδ Scintillation Proximity Assay
PI3Kδ (p110δ/p85α), sequence (O00329 whole entry): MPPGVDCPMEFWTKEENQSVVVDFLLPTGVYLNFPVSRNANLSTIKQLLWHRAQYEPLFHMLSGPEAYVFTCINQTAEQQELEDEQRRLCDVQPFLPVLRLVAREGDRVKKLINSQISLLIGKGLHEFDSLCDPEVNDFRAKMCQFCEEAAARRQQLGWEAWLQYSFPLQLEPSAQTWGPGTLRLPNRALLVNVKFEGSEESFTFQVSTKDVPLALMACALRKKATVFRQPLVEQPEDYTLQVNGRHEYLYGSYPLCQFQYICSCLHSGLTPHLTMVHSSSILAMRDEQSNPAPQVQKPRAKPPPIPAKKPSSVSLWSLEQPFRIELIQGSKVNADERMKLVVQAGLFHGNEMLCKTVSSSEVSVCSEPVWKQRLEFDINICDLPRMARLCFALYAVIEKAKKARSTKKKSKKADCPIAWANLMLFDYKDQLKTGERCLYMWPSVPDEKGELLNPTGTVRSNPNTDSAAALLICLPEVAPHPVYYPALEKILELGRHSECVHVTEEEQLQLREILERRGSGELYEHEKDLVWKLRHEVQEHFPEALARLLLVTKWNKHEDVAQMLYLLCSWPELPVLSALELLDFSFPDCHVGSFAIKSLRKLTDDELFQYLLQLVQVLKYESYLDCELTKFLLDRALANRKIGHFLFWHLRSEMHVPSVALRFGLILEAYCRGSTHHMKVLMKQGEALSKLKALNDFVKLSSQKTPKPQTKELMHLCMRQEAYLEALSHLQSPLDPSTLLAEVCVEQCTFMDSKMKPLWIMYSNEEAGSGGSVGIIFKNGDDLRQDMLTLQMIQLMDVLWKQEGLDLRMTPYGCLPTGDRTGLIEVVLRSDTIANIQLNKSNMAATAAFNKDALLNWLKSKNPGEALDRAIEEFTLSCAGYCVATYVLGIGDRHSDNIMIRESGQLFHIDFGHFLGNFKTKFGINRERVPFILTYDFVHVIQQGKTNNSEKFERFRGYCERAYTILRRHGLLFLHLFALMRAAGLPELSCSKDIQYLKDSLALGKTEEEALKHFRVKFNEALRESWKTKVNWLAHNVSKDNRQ
PI3Kδ (p110δ/p85α), sequence (P27986 whole entry partner): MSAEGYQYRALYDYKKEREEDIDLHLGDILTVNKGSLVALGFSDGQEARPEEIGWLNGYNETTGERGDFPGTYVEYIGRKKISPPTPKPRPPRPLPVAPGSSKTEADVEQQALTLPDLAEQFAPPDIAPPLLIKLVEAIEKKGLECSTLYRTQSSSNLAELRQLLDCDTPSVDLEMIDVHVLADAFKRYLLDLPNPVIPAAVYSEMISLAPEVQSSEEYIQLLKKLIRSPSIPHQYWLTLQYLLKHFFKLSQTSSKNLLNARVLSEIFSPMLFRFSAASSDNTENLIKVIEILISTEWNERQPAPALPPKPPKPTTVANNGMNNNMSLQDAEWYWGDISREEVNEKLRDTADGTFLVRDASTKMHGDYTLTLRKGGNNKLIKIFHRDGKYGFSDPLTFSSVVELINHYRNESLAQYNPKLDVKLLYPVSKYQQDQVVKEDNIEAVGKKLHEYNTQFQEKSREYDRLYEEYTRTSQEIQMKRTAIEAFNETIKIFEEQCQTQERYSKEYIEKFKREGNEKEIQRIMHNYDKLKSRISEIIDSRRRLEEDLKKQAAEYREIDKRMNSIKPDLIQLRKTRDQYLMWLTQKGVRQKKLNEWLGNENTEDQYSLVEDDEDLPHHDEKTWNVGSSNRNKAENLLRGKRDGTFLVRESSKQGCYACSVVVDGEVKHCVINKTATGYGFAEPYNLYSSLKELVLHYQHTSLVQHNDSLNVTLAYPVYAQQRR
[γ-^33P]ATP (10 mCi/mL) was purchased from Perkin-Elmer (Waltham, Mass.). Lipid kinase substrate, D-myo-Phosphatidylinositol 4,5-bisphosphate (PtdIns(4,5)P2)D (+)-sn-1,2-di-O-octanoylglyceryl, 3-O-phospho linked (PIP2), CAS 204858-53-7, was purchased from Echelon Biosciences (Salt Lake City, Utah). PI3Kδ (p110δ/p85α) was purchased from Millipore (Bedford, Mass.). ATP, MgCl2, DTT, EDTA, MOPS and CHAPS were purchased from Sigma-Aldrich (St. Louis, Mo.). Wheat Germ Agglutinin (WGA) YSi SPA Scintillation Beads was purchased from GE healthcare life sciences (Piscataway, N.J.).
The kinase reaction was conducted in polystyrene 384-well matrix white plate from Thermo Fisher Scientific in a final volume of 25 μL. Inhibitors were first diluted serially in DMSO and added to the plate wells before the addition of other reaction components. The final concentration of DMSO in the assay was 0.5%. The PI3K assays were carried out at room temperature in 20 mM MOPS, pH 6.7, 10 mM MgCl2, 5 mM DTT and CHAPS 0.03%. Reactions were initiated by the addition of ATP, the final reaction mixture consisted of 20 µM PIP2, 20 µM ATP, 0.2 μCi [γ-^33P]ATP, 4 nM PI3Kδ. Reactions were incubated for 210 min and terminated by the addition of 40 μL SPA beads suspended in quench buffer: 150 mM potassium phosphate pH 8.0, 20% glycerol. 25 mM EDTA, 400 µM ATP. The final concentration of SPA beads was 1.0 mg/mL. After the plate sealing, plates were shaken overnight at room temperature and centrifuged at 1800 rpm for 10 minutes, the radioactivity of the product was determined by scintillation counting on Topcount (Perkin-Elmer). IC50 determination was performed by fitting the curve of percent control activity versus the log of the inhibitor concentration using the GraphPad Prism 3.0 software. […] IC50 data for Examples 1-25 is presented in Table 3 for PI3Kδ as determined by the assay of Example A2 or A3 as indicated

PI3Kδ, sequence (O00329 whole entry): as the sequence (O00329 whole entry) above
PI3Kδ, sequence (P27986 whole entry partner): as the sequence (P27986 whole entry partner) above

Broadly, the IC50 is the concentration that inhibits the measured activity by half. On to `Cc1nn(C(C)c2cc(Cl)c(F)c3c2OC(C)CN(S(C)(=O)=O)C3)c2ncnc(N)c12` (single isomer, unassigned) [Example 40, 1-{1-[7-Chloro-6-fluoro-2-methyl-4-(methylsulfonyl)-2,3,4,5-tetrahydro-1,4-benzoxazepin-9-yl]ethyl}-3-methyl-1H-pyrazolo[3,4-d]pyrimidin-4-amine], for which the IC50 against PI3Kδ was not above 100 nM; in the assay on SUDHL-6 cells it was not above 500 nM. On to `Cc1nn(C(C)c2cc(Cl)c(F)c3c2OC(C)CN(S(C)(=O)=O)C3)c2ncnc(N)c12` (single isomer, unassigned) [Example 37, 1-{1-[7-Chloro-6-fluoro-2-methyl-4-(methylsulfonyl)-2,3,4,5-tetrahydro-1,4-benzoxazepin-9-yl]ethyl}-3-methyl-1H-pyrazolo[3,4-d]pyrimidin-4-amine], for which the IC50 was not above 100 nM against PI3Kδ and not above 500 nM in the assay with SUDHL-6 cells (Homo sapiens, SU-DHL-6, 72 h). With `CC(=O)N1CC(N2Cc3c(F)c(Cl)cc(C(C)n4nc(C)c5c(N)ncnc54)c3OC(C)C2)C1` (single isomer, unassigned) [Example 32, 1-{1-[4-(1-Acetylazetidin-3-yl)-7-chloro-6-fluoro-2-methyl-2,3,4,5-tetrahydro-1,4-benzoxazepin-9-yl]ethyl}-3-methyl-1H-pyrazolo[3,4-d]pyrimidin-4-amine], the IC50 against PI3Kδ is not above 100 nM; in the assay on SUDHL-6 cells it was not above 500 nM.

For the compound `CC(=O)N1CC(N2Cc3c(F)c(Cl)cc(C(C)n4nc(C)c5c(N)ncnc54)c3OC(C)C2)C1` (single isomer, unassigned) [Example 28, 1-{1-[4-(1-Acetylazetidin-3-yl)-7-chloro-6-fluoro-2-methyl-2,3,4,5-tetrahydro-1,4-benzoxazepin-9-yl]ethyl}-3-methyl-1H-pyrazolo[3,4-d]pyrimidin-4-amine], the IC50 is not above 100 nM against PI3Kδ and not above 500 nM with SUDHL-6 cells (Homo sapiens, SU-DHL-6, 72 h). On to `CC(=O)N1CC(N2Cc3c(C#N)c(Cl)cc(C(C)n4nc(C)c5c(N)ncnc54)c3OC(C)C2)C1` (single isomer, unassigned) [Example 49, 4-(1-Acetylazetidin-3-yl)-9-[1-(4-amino-3-methyl-1H-pyrazolo[3,4-d]pyrimidin-1-yl)ethyl]-7-chloro-2-methyl-2,3,4,5-tetrahydro-1,4-benzoxazepine-6-carbonitrile], for which the IC50 on PI3Kδ is not above 100 nM; in the assay with SUDHL-6 cells, not above 500 nM.

For the compound `CC(=O)N1CC(N2Cc3c(F)c(Cl)cc(C(C)n4nc(C)c5c(N)ncnc54)c3OC(C)C2)C1` (single isomer, unassigned) [Example 29, 1-{1-[4-(1-Acetylazetidin-3-yl)-7-chloro-6-fluoro-2-methyl-2,3,4,5-tetrahydro-1,4-benzoxazepin-9-yl]ethyl}-3-methyl-1H-pyrazolo[3,4-d]pyrimidin-4-amine], the IC50 against PI3Kδ is not above 100 nM; in the assay with SUDHL-6 cells it was not above 500 nM. The matching figures for `Cc1nn(C(C)c2cc(Cl)c(C#N)c3c2OC(C)CN(CCO)C3)c2ncnc(N)c12` (single isomer, unassigned) [Example 63, 9-[1-(4-Amino-3-methyl-1H-pyrazolo[3,4-d]pyrimidin-1-yl)ethyl]-7-chloro-4-(2-hydroxyethyl)-2-methyl-2,3,4,5-tetrahydro-1,4-benzoxazepine-6-carbonitrile]: not above 100 nM and not above 500 nM. For the compound `Cc1nn(C(C)c2cc(Cl)c(C#N)c3c2OC(C)CN(CCO)C3)c2ncnc(N)c12` (single isomer, unassigned) [Example 62, 9-[1-(4-Amino-3-methyl-1H-pyrazolo[3,4-d]pyrimidin-1-yl)ethyl]-7-chloro-4-(2-hydroxyethyl)-2-methyl-2,3,4,5-tetrahydro-1,4-benzoxazepine-6-carbonitrile], the IC50 is not above 100 nM against PI3Kδ and not above 500 nM in the assay with SUDHL-6 cells (Homo sapiens, SU-DHL-6, 72 h). At PI3Kδ (p110δ/p85α), `Cc1c(Cl)cc(C(C)n2nc(C)c3c(N)ncnc32)c2c1CN(C1CN(C(=O)OC(C)(C)C)C1)CCO2` (stereo not shown) [Example 3, tert-Butyl 3-[9-[1-(4-amino-3-methyl-1H-pyrazolo[3,4-d]pyrimidin-1-yl)ethyl]-7-chloro-6-methyl-2,3-dihydro-1,4-benzoxazepin-4(5H)-yl]azetidine-1-carboxylate] had an IC50 not above 100 nM. In the case of `CC(=O)N1CC(N2Cc3c(F)c(Cl)cc(C(C)n4nc(C)c5c(N)ncnc54)c3OC(C)C2)C1` (single isomer, unassigned) [Example 30, 1-{1-[4-(1-Acetylazetidin-3-yl)-7-chloro-6-fluoro-2-methyl-2,3,4,5-tetrahydro-1,4-benzoxazepin-9-yl]ethyl}-3-methyl-1H-pyrazolo[3,4-d]pyrimidin-4-amine], the half-inhibitory concentration (IC50) against PI3Kδ was not above 100 nM; with SUDHL-6 cells it was not above 500 nM.

Compound `Cc1c(Cl)cc(C(C)n2nc(C)c3c(N)ncnc32)c2c1CN(C(=O)OC(C)(C)C)CCO2` (stereo not shown) [Example 1, tert-Butyl 9-[1-(4-amino-3-methyl-1H-pyrazolo[3,4-d]pyrimidin-1-yl)ethyl]-7-chloro-6-methyl-2,3-dihydro-1,4-benzoxazepine-4(5H)-carboxylate] showed an IC50 against PI3Kδ (p110δ/p85α) of 100 to 500 nM. With `Cc1c(Cl)cc(C(C)n2nc(C)c3c(N)ncnc32)c2c1CN(C(=O)c1ccccc1)CCO2` (stereo not shown) [Example 16, 1-[1-(4-Benzoyl-7-chloro-6-methyl-2,3,4,5-tetrahydro-1,4-benzoxazepin-9-yl)ethyl]-3-methyl-1H-pyrazolo[3,4-d]pyrimidin-4-amine trifluoroacetate], the IC50 on PI3Kδ (p110δ/p85α) is not above 100 nM. Still for that read-out and setting: then `Cc1c(Cl)cc(C(C)n2nc(C)c3c(N)ncnc32)c2c1CN(C1CCCCC1)CCO2` (stereo not shown) [Example 7, 1-[1-(7-Chloro-4-cyclohexyl-6-methyl-2,3,4,5-tetrahydro-1,4-benzoxazepin-9-yl)ethyl]-3-methyl-1H-pyrazolo[3,4-d]pyrimidin-4-amine bis(trifluoroacetate)], with not above 100 nM.
